Experiment in all cases: KinaseProfiler Assay
For one test, the target named is T1, EphA3(h) (Homo sapiens, UniProt P29320).
T1 sequence (P29320 21-983): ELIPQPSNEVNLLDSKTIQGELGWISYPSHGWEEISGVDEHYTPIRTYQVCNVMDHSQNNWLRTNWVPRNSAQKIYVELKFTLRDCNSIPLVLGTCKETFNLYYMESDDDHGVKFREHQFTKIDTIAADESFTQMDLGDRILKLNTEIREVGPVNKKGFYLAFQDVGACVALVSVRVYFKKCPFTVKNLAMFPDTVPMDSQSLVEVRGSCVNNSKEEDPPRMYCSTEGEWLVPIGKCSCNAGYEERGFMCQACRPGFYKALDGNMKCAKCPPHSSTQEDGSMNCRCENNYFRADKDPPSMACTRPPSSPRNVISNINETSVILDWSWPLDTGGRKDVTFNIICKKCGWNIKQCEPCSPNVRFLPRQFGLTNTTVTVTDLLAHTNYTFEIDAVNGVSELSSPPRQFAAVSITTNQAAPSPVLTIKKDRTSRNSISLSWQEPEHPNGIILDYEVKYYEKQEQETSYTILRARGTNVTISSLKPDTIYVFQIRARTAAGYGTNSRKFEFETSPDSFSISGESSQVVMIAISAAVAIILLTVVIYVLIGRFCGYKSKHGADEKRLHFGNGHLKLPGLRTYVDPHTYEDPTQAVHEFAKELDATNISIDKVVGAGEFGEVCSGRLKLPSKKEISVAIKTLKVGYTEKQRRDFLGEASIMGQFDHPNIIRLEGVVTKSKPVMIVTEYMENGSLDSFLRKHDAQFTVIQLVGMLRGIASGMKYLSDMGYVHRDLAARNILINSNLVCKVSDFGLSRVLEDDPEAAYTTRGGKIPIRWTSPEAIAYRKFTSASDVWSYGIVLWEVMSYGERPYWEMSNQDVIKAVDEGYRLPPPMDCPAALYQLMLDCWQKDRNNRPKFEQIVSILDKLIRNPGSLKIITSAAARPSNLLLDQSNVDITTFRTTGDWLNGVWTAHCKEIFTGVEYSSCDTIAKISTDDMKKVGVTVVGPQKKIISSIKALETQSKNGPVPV

The next test deals with T2, EphB1(h) (Homo sapiens, UniProt P54762).
T2 sequence (P54762 18-984): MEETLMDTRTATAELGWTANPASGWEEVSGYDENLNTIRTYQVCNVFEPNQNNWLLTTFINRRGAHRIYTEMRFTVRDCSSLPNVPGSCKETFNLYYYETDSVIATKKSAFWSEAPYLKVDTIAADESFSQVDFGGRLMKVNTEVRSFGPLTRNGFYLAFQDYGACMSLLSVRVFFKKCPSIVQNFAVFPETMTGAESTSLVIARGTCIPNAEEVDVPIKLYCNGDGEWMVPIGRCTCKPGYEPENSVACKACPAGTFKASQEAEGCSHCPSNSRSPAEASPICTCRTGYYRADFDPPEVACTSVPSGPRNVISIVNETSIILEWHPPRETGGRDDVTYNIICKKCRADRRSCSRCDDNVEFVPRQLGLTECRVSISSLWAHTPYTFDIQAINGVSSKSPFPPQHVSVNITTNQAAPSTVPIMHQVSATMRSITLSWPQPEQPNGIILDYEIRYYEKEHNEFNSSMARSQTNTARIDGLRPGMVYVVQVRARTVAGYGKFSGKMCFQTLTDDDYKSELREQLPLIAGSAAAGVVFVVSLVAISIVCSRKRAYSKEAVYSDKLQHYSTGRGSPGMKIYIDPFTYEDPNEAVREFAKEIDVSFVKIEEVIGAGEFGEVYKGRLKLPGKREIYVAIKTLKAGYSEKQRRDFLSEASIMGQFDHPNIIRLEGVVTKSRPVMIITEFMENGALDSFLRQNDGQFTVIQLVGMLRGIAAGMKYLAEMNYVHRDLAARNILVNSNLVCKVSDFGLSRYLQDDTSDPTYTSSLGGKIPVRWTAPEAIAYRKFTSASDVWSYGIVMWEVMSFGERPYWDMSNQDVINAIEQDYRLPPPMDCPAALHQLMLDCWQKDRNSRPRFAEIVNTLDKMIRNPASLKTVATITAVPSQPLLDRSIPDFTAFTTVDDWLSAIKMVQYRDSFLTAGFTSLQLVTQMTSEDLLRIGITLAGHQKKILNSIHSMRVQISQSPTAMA

The next test addresses PKCδ(h) (Homo sapiens, UniProt Q05655).
The target in a further test is T3, BrSK1(h) (Homo sapiens, UniProt Q8TDC3).
T3 sequence (Q8TDC3 1-778): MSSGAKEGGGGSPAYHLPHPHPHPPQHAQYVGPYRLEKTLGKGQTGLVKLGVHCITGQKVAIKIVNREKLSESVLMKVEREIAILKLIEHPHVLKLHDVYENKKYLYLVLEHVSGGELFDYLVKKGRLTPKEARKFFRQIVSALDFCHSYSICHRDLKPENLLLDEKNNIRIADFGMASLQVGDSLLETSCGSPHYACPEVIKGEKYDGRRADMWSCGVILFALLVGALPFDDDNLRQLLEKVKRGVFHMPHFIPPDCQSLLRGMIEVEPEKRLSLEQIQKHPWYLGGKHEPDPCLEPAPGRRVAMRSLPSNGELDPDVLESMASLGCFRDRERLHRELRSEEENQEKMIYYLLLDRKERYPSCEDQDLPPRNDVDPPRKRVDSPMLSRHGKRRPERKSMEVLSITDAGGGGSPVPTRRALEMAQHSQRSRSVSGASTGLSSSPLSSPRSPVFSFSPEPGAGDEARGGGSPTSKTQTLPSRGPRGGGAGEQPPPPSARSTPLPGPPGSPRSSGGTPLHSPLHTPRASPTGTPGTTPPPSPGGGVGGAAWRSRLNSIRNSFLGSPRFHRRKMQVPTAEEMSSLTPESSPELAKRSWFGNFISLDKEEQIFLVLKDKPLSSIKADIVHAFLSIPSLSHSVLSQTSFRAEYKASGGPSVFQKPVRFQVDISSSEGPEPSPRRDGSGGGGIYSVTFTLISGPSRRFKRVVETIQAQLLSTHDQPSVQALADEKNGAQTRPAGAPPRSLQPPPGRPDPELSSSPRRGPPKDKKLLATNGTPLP

1 molecule from patent US20100137449A1, “SUBSTITUTED 1,3-CYCLOPENTADIONE MULTI-TARGET PROTEIN KINASE MODULATORS OF CANCER, ANGIOGENESIS AND THE INFLAMMATORY PATHWAYS ASSOCIATED THEREWITH” (METAPROTEOMICS, LLC, priority 2007, published 2010) can be followed below.

Chain of PKCδ(h) (Q05655 whole entry): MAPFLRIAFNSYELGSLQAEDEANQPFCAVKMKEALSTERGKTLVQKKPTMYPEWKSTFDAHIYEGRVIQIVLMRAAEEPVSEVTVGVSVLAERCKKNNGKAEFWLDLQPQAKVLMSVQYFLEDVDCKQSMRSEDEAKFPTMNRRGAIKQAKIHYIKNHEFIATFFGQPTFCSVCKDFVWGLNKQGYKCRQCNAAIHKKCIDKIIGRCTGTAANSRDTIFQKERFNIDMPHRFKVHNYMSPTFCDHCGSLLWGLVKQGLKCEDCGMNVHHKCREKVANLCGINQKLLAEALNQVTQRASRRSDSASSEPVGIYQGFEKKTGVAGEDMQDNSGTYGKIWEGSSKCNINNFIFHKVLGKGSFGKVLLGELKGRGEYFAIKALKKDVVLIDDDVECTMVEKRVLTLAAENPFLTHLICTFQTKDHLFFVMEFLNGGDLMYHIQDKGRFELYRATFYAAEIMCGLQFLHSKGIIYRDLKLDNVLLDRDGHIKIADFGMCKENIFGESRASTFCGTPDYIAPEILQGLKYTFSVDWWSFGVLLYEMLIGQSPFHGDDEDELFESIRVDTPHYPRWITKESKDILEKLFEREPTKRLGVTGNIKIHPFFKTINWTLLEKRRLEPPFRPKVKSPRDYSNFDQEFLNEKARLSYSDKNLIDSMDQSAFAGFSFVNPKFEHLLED

As for `CC(C)CCC(=O)[C@]1(O)C(O)=C(C(=O)C(C)C)C(=O)[C@H]1CCC(C)C` [TH2, tetrahydroiso-cohumulone], the kinase inhibition is given as 93% of control on EphA3(h) (1 μg/ml); 91% of control at EphA3(h) (5 μg/ml); 98% of control on EphA3(h) (25 μg/ml); 87% of control on EphA3(h) (50 μg/ml); 84% of control at EphA3(h) (100 μg/ml); 127% of control on EphB1(h) (1 μg/ml). In addition, the kinase inhibition on EphB1(h) (5 μg/ml) was 82% of control; at EphB1(h) (25 μg/ml) it was 144% of control; on EphB1(h) (50 μg/ml) it was 195% of control; at EphB1(h) (100 μg/ml) it was 105% of control; on PKCδ(h) (1 μg/ml) it was 111% of control; at PKCδ(h) (5 μg/ml) it was 110% of control. The kinase inhibition on PKCδ(h) (25 μg/ml) is on record as 97% of control; on PKCδ(h) (50 μg/ml), 92% of control; at PKCδ(h) (100 μg/ml), 80% of control; on BrSK1(h) (1 μg/ml) it was 104% of control; at BrSK1(h) (5 μg/ml), 101% of control; on BrSK1(h) (25 μg/ml), 82% of control. Moreover, the kinase inhibition on BrSK1(h) (50 μg/ml) is given as 66% of control; on BrSK1(h) (100 μg/ml), 50% of control.
